From PubChem BioAssay AID1963869 (Molecular Pharmacology Branch, DTP, NCI, 2024)

Tested on: KRAS patient-derived spheroids with HUVEC/MSC, viability
Experiment: Anticancer human tumor 323965-272-R-J2-PDC patient-derived pancreatic carcinoma cell line growth inhibition [KRAS2]
Conditions: for IC50: curve of first compound; for viability, T/C: stronger effect = lower value
In short: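 Combination screen of spheroid viability in tumor-cell co-cultures with endothelial (HUVEC) and mesenchymal stem cell stroma. Each agent was tested in half-log dilutions, topping at clinical Cmax or at 10 microM without a known Cmax.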

[1] = second compound 0.1 µM, first compound 0.0316 µM
[2] = second compound 0.1 µM, first compound 0.1 µM
[3] = second compound 0.1 µM, first compound 0.316 µM
[4] = second compound 0.1 µM, first compound 1 µM
[5] = second compound 0.1 µM, first compound 3.16 µM
[6] = second compound 0.1 µM, first compound 10 µM
[7] = second compound 0.316 µM, first compound 0.0316 µM
[8] = second compound 0.316 µM, first compound 0.1 µM
[9] = second compound 0.316 µM, first compound 0.316 µM
[10] = second compound 0.316 µM, first compound 1 µM
[11] = second compound 0.316 µM, first compound 3.16 µM
[12] = second compound 0.316 µM, first compound 10 µM
[13] = second compound 1 µM, first compound 0.0316 µM
[14] = second compound 1 µM, first compound 0.1 µM
[15] = second compound 1 µM, first compound 0.316 µM
[16] = second compound 1 µM, first compound 1 µM
[17] = second compound 1 µM, first compound 3.16 µM
[18] = second compound 1 µM, first compound 10 µM
[19] = second compound 3.16 µM, first compound 0.0316 µM
[20] = second compound 3.16 µM, first compound 0.1 µM
[21] = second compound 3.16 µM, first compound 0.316 µM
[22] = second compound 3.16 µM, first compound 1 µM
[23] = second compound 3.16 µM, first compound 3.16 µM
[24] = second compound 3.16 µM, first compound 10 µM
[25] = second compound 10 µM, first compound 0.0316 µM
[26] = second compound 10 µM, first compound 0.1 µM
[27] = second compound 10 µM, first compound 0.316 µM
[28] = second compound 10 µM, first compound 1 µM
[29] = second compound 10 µM, first compound 3.16 µM
[30] = second compound 10 µM, first compound 10 µM
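Further: spheroids exposed to agents for 7 days.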
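Wherever viability, T/C is given: 100% = DMSO vehicle control viability.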

Compound | IC50 (second compound 0.1 µM) | IC50 (second compound 0.316 µM) | IC50 (second compound 1 µM) | IC50 (second compound 3.16 µM) | IC50 (second compound 10 µM) | viability, T/C [1] | viability, T/C [2] | viability, T/C [3] | viability, T/C [4] | viability, T/C [5] | viability, T/C [6] | viability, T/C [7] | viability, T/C [8] | viability, T/C [9] | viability, T/C [10] | viability, T/C [11] | viability, T/C [12] | viability, T/C [13] | viability, T/C [14] | viability, T/C [15] | further results
COC(=O)c1ccc2c(C(=Nc3ccc(N(C)C(=O)CN4CCN(C)CC4)cc3)c3ccccc3)c(O)[nH]c2c1 + CC1OCC2(CCN(c3cnc(Sc4ccnc(N)c4Cl)c(N)n3)CC2)C1N | > 10000 nM | 5080 nM | < 31.6 nM | < 31.6 nM | < 31.6 nM | 78.8% | 85.7% | 81.8% | 76.3% | 79.1% | 73.4% | 74.8% | 59.2% | 61.1% | 65.2% | 50% | 45.8% | 45.3% | 47.9% | 53.2% | viability, T/C [16]: 41.6%; viability, T/C [17]: 43.9%; viability, T/C [18]: 41.6%; viability, T/C [19]: 34.6%; viability, T/C [20]: 38.7%; viability, T/C [21]: 35.2%; viability, T/C [22]: 36%; viability, T/C [23]: 31.9%; viability, T/C [24]: 33.3%; viability, T/C [25]: 31.8%; viability, T/C [26]: 30.3%; viability, T/C [27]: 29.7%; viability, T/C [28]: 27.5%; viability, T/C [29]: 23.4%; viability, T/C [30]: 23.2%
COc1cc(Nc2ncc3c(n2)-c2ccc(Cl)cc2C(c2c(F)cccc2OC)=NC3)ccc1C(=O)O + CC1OCC2(CCN(c3cnc(Sc4ccnc(N)c4Cl)c(N)n3)CC2)C1N | 89.9 nM | < 31.6 nM | < 31.6 nM | < 31.6 nM | < 31.6 nM | 79.5% | 47.3% | 33.8% | 44.3% | 50.6% | 56.2% | 57.2% | 39.9% | 30.8% | 32.6% | 39.1% | 43.8% | 44.9% | 26.6% | 23.4% | viability, T/C [16]: 26.6%; viability, T/C [17]: 30.4%; viability, T/C [18]: 33.7%; viability, T/C [19]: 37.2%; viability, T/C [20]: 22.2%; viability, T/C [21]: 17.7%; viability, T/C [22]: 23%; viability, T/C [23]: 24.1%; viability, T/C [24]: 28.3%; viability, T/C [25]: 29.9%; viability, T/C [26]: 19.3%; viability, T/C [27]: 17.4%; viability, T/C [28]: 20.3%; viability, T/C [29]: 20.9%; viability, T/C [30]: 23.3%
COc1cc2nccc(Oc3ccc(NC(=O)C4(C(=O)Nc5ccc(F)cc5)CC4)cc3)c2cc1OC + CC1OCC2(CCN(c3cnc(Sc4ccnc(N)c4Cl)c(N)n3)CC2)C1N | > 10000 nM | > 10000 nM | < 31.6 nM | < 31.6 nM | < 31.6 nM | 80.4% | 80.5% | 74.9% | 87.4% | 79.8% | 73.5% | 58.7% | 65.4% | 65.5% | 64.6% | 71.9% | 63% | 46.9% | 42.4% | 46.9% | viability, T/C [16]: 58.4%; viability, T/C [17]: 52.8%; viability, T/C [18]: 45.4%; viability, T/C [19]: 35.1%; viability, T/C [20]: 36.1%; viability, T/C [21]: 36.3%; viability, T/C [22]: 35.5%; viability, T/C [23]: 35.2%; viability, T/C [24]: 29.8%; viability, T/C [25]: 27.4%; viability, T/C [26]: 28.8%; viability, T/C [27]: 26.8%; viability, T/C [28]: 30.3%; viability, T/C [29]: 33.5%; viability, T/C [30]: 27.3%
